This passage reports inhibition results from publication PMC4607267 (Molecular and biochemical parasitology, 2015).

Where only a bound is given, the exact number is not on record here.

The test has as its target T1, SmGAR (Schistosoma mansoni, UniProt A0A3Q0KNW8).
T1 sequence (A0A3Q0KNW8 5-938): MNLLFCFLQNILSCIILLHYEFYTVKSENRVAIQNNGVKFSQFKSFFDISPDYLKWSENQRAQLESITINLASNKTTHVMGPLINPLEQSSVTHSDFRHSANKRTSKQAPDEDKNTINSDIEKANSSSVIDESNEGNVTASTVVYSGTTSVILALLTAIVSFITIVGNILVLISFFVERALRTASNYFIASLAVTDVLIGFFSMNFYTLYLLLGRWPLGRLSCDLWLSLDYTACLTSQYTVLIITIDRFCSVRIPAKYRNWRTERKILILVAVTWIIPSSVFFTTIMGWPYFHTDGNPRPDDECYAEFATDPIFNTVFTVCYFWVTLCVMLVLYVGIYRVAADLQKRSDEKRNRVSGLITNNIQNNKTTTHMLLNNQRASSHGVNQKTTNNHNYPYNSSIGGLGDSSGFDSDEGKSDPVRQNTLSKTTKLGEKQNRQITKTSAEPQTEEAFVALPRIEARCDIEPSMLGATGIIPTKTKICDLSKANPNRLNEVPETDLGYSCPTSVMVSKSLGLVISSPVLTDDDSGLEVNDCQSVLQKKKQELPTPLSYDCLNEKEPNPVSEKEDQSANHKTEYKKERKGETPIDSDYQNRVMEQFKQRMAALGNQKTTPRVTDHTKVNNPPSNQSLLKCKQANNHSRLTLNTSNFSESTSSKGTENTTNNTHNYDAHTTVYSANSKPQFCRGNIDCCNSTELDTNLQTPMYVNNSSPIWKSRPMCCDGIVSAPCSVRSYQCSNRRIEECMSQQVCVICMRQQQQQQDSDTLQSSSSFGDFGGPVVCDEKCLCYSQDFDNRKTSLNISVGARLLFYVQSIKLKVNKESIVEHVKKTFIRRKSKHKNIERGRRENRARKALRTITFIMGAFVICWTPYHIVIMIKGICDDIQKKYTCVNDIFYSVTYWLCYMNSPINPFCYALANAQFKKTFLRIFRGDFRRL
The test can be described thus: yeast HIS3 reporter growth assay, Alamar Blue. The test is classed as cell-based. As to conditions: read-out: % inhibition at 1 mM.

Regarding `CN1CCN(CC(=O)N2c3ccccc3C(=O)Nc3cccnc32)CC1` [pirenzepine], the inhibition at 1000 µM was less than 50%.
